Experiments:
Format in all cases: cell-based, human
HaCaT cells [1] = assay: MTT assay, cell viability; conditions: after 48 h and 72 h of cultivation, versus control without DMG
Method: (§1) As part of an in vitro study, the effect of sodium dimethylglycinate was investigated in a cell culture model with human keratin-forming keratinocyte cells. For this purpose, HaCaT cells were cultured for 1, 3, 5 and 7 days in DMEM medium (including fetal calf serum and an antibiotic-antimycotic mix) and the viability, proliferation and migration of the cells were determined using suitable measurement methods and the expression of growth factors relevant for cell growth was determined.
For this measurement, a so-called MTT assay was used to determine cellular metabolic activity as an indicator of cell viability and cytotoxicity. This colorimetric assay is based on the reduction of a yellow tetrazolium salt (3-(4,5-dimethylthiazol-2-yl)-2,5-diphenyltetrazolium bromide or MTT) to purple formazan crystals by metabolically active cells.
Human epidermal keratinocyte cells (HaCaT) were seeded in a 96-well plate at a cell density of 5,000 cells/well and cultured in medium (DMEM with 10% FBS, 1% penicillin-streptomycin, 0.5% fungizone). On the next day and after a further 24 h, 48 h and 72 h of cultivation at 37° C. and 5 vol. % CO2, the cell culture medium without (control) or with the respective concentrations of sodium dimethylglycinate (DMG) already contained was changed. […]

HaCaT cells [2] = assay: CyQUANT assay, cell proliferation; conditions: after 48 h and 72 h of cultivation, versus control without DMG
Method: as §1
A so-called CyQUANT assay was used to measure proliferation. In this fluorescence-based assay, the fluorescent dye used binds to DNA (deoxyribonucleic acid), whereby the content of cellular DNA is a direct measure of the number of cells within a sample.
Human epidermal keratinocyte cells (HaCaT) were seeded in a 96-well plate at a cell density of 5,000 cells/well and cultured in medium (DMEM with 10% FBS, 1% penicillin-streptomycin, 0.5% fungizone). On the next day and after a further 24 h, 48 h and 72 h of cultivation at 37° C. and 5 vol. % CO2, the cell culture medium without (control) or with the respective concentrations of active substance already contained was changed. […]

HaCaT cells [3] = assay: wound healing assay, migration; conditions: images after 16 h, 20 h and 24 h, different DMG concentrations, versus control without DMG
Method: as §1
A so-called wound healing assay was used to measure migration, based on previously published studies in T. Kawabata, T. Otsuka, K. Fujita, G. Sakai, R. Matsushima-Nishiwaki, O. Kozawa, H. Tokuda, International journal of molecular medicine 2018, 42, 3149-3156. The principle is based on measuring the migration of cells to a not yet colonized cultivation surface over time. For this purpose, 20,000 cells each were seeded into two adjacent wells or cavities separated by a silicone insert (with standardized width) and cultivated in medium (DMEM with 5% FBS, 1% penicillin-streptomycin, 0.5% fungizone) for 48 h at 37° C. and 5 vol % CO2. The plastic insert was then removed (“creation of the wound”) and the migration of the cells was documented by determining the cultivation surface not colonized with cells over time using images. […]

VEGF = VEGF gene expression by qRT-PCR; conditions: HaCaT; after 24 h of cultivation; versus control without DMG
Method: VEGF (vascular endothelial growth factor) promotes the growth and formation of new blood and lymph vessels. Gene expression was measured using a standard method known as quantitative real-time PCR (qRT-PCR).
Human epidermal keratinocyte cells (HaCaT) were seeded in a 6-well plate at a cell density of 140,000 cells/well and cultured in medium (DMEM with 10% FBS, 1% penicillin-streptomycin, 0.5% fungizone) at 37° C. and 5 vol % CO2. On the next day, the cell culture medium without (control) or with the respective concentrations of active substance already contained was changed and the cells were harvested after 24 hours. Gene expression was measured using qRT-PCR based on previously published studies in B. V. Diaz, M.-C. Lenoir, A. Ladoux, C. Frelin, M. Demarchez, S. Michel, Journal of Biological Chemistry 2000, 275, 642-650.

Interleukin-6 (IL-6) = assay: IL-6 gene expression by qRT-PCR after cytokine-induced inflammation; conditions: HaCaT; 25 ng/ml TNFα and 25 ng/ml IFNγ; DMG 0.005%-0.00005%; 24 h; versus positive control of inflammation induction
Method: Interleukin-6 (IL-6) is a peptide hormone of the immune system from the group of pro-inflammatory interleukins and plays a key role in the non-specific, innate immune response. Gene expression was measured using a standard method known as quantitative real-time PCR (qRT-PCR).
Human epidermal keratinocyte cells (HaCaT) were seeded in a 6-well plate at a cell density of 140,000 cells/well and cultured in medium (DMEM with 10% FBS, 1% penicillin-streptomycin, 0.5% fungizone) at 37° C. and 5 vol % CO2. On the next day, cytokine treatment (25 ng/ml tumor necrosis factor-alpha (TNFα) and 25 ng/ml interferon-gamma (IFNγ)) was used to induce cell inflammation. […] with the different DMG drug concentrations (inflammation induction+DMG 0.005%−0.00005%) or without DMG (positive control of inflammation induction). In parallel, cells were treated without any treatment (control) or only with the different DMG drug concentrations (DMG 0.005%−0.00005%) and the cells were harvested after 24 h for gene expression analysis. Gene expression was measured using qRT-PCR based on previously published studies in B. V. Diaz, M.-C. Lenoir, A. Ladoux, C. Frelin, M. Démarchez, S. Michel, Journal of Biological Chemistry 2000, 275, 642-650.

CN(C)CC(=O)[O-].[Na+] [DMG, sodium dimethylglycinate]
cell viability (MTT, absorption normalized to control at 24 h) (HaCaT cells [1]): clear increase | cell proliferation (CyQUANT, fluorescence normalized to control at 24 h) (HaCaT cells [2]): clear increase | migration or wound closure (HaCaT cells [3]): significantly faster | relative gene expression of VEGF (normalized to GAPDH) (VEGF): significant increase | expression of interleukin-6 induced by cytokine treatment (Interleukin-6 (IL-6)): dose-dependently reduced
